Target: T1, interaction between 6×His-Bcl-xL and GST-BF8 (Homo sapiens, UniProt Q07817)
T1 construct: made in house; host or cells: E. coli
Assay: Pull down assay, Bcl-xL/BF8 in vitro interaction
Type: binding
Conditions: 50 μM, 5% DMSO; Western blot
Procedure: FIG. 3: Inhibition of the interaction between Bcl-xL and BF8, a peptide aptamer that targets the hydrophobic groove of BCL-2 family members. […]
C+: 6×His-Bcl-xL captured by GST-BF8, in presence of 5% DMSO. (02): 6×His-Bcl-xL captured by GST-BF8, in presence of 50 μM of compound 02 (in 5% DMSO). (01): 6×His-Bcl-xL captured by GST-BF8, in presence of 50 μM of compound 01 (in 5% DMSO).
A peptide aptamer (dubbed BF8) has been selected against the anti-apoptotic protein Bfl1, member of the BCL-2 family. […] Two lines of evidence indicate that BF8 binds the hydrophobic groove of anti-apoptotic BCL-2-like proteins. First, the amino-acid sequence of its variable region bears similarities with the sequence of the BH3 domains of pro-apoptotic members of the BCL-2 family (such as Bak or Bax), known to bind the anti-apoptotic proteins via this hydrophobic groove. Second, BF8 no longer binds a mutated variant of Bfl-1 that bears an amino-acid substitution within the said hydrophobic groove.
A Bcl-xL/BF8 in vitro interaction assay was developed to examine the capacity of the compounds of the invention to disrupt this interaction by competition with the peptide aptamer. 6×His-Bcl-xL and GST-BF8 recombinant fusion proteins were expressed in E. coli and purified using affinity chromatography. […]

T1 sequence (Q07817 whole entry): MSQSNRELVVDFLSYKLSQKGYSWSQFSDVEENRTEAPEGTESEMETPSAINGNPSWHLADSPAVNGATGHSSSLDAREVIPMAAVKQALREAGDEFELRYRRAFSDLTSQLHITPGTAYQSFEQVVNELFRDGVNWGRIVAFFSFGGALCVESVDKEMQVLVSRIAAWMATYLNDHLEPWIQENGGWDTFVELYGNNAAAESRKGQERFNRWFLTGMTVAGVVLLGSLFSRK

Inhibition of the in vitro interaction between 6×His-Bcl-xL and GST-BF8: inhibit
SMILES: COc1cc(NC(=S)NC(=O)/C=C/c2ccco2)ccc1-c1cc2ccccc2oc1=O [Compound 01, (2E)-3-(2-furyl)-N-({[3-methoxy-4-(2-oxo-2H-chromen-3-yl)phenyl]amino}carbonothioyl)acrylamide]
